Results taken from PubChem BioAssay (NCI).
“And” between values parts separate entries of the source, which are not always exact repeats. Equal entries are not always repeated.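 Briefly, cells in 96-well plates were exposed to five compound concentrations for 48 h, and endpoints were estimated by linear interpolation. Here, GI50 denotes the concentration required for 50% inhibition of growth. TGI is the concentration that stops growth completely.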

What was measured:
Test in all cases: DTP human tumour cell line panel, 48 h
786-0 renal = test system: 786-0 renal
HOP-62 NSCLC = test system: HOP-62 NSCLC
K-562 leukemia = test system: K-562 leukemia
M14 melanoma = test system: M14 melanoma
NCI-H460 lung = test system: NCI-H460 lung
SN12C renal = test system: SN12C renal
SNB-19 CNS = test system: SNB-19 CNS
SR leukemia = test system: SR leukemia
DLD-1 colon = test system: DLD-1 colon
M19-MEL melanoma = test system: M19-MEL melanoma

SMILES | GI50 (786-0 renal) | TGI (786-0 renal) | GI50 (HOP-62 NSCLC) | TGI (HOP-62 NSCLC) | GI50 (K-562 leukemia) [µM] | TGI (K-562 leukemia) | GI50 (M14 melanoma) | TGI (M14 melanoma) | GI50 (NCI-H460 lung) [µM] | TGI (NCI-H460 lung) [µM] | GI50 (SN12C renal) | TGI (SN12C renal) | GI50 (SNB-19 CNS) | TGI (SNB-19 CNS) | GI50 (SR leukemia) [µM] | TGI (SR leukemia) | GI50 (DLD-1 colon) [µM] | TGI (DLD-1 colon) [µM] | TGI (M19-MEL melanoma) [µM]
COc1ccc(CCN2CCCn3c2nc2ccccc2c3=O)cc1 | 0.299 µM | > 100 µM | 0.084 µM | > 61.8 µM | < 0.0205 | > 100 µM | 0.0463 µM | > 100 µM | 0.0512 | > 100 | 1.1 µM | > 100 µM | 0.629 µM | > 100 µM | 0.0448 | > 100 µM | – | – | –
Cc1cccc(CNc2c3ccccc3nc3ccccc23)c1 | 1.89 µM | 4.09 µM | 3.14 µM | 16.1 µM | 2.23 | 12.5 µM | 1.57 µM | 3.35 µM | 1.99 | 5.03 | 2.4 µM | 10.1 µM | 3.07 µM | 13 µM | 1.94 | 8.62 µM | – | – | –
O=[N+]([O-])c1ccc(Sc2cccc[n+]2[O-])c2nonc12 | 9.18 µM | 22.3 µM | 28 µM | > 56.4 µM | 2.1 | > 100 µM | 4.32 µM | 16.4 µM | 3.64 | 25.2 | 8.04 µM | 22.6 µM | 17.1 µM | > 100 µM | 0.703 | > 100 µM | – | – | –
N#CC1=C(N)NC(=O)C(C#N)C12Nc1ccccc1S2 (configuration not stated) | > 100 µM | > 100 µM | > 100 µM | > 100 µM | 48.8 | > 100 µM | 87.9 µM | > 100 µM | > 100 | > 100 | > 100 µM | > 100 µM | 90.5 µM | > 100 µM | 52.4 | > 100 µM | – | – | –
N.N.N.N.N#N.N#N.[Cl-].[Os+6] | > 100 µM | > 100 µM | – | – | – | – | > 100 µM | > 100 µM | > 100 | > 100 | > 100 µM | > 100 µM | > 100 µM | > 100 µM | > 100 | > 100 µM | > 100 | > 100 | –
Nc1nc(N)nc(CCCCc2nc(N)nc(N)n2)n1 | – | > 100 µM | – | > 100 µM | – | > 100 µM | – | > 100 µM | – | > 100 | – | > 100 µM | – | > 100 µM | – | > 100 µM | – | – | –
CCc1nc(N)nc(N)c1C#CC(C)c1ccc(-c2ccncc2)cc1Cl (configuration not stated) | 0.00501 µM and 0.0128 µM | 4.06 µM and 6.63 µM | 0.0266 µM and 0.0528 µM | 1.92 µM and 13.9 µM | < 0.005 | 28.5 µM and 15.2 µM | < 0.005 µM and 0.0121 µM | 1.61 µM and 10.3 µM | < 0.005 | – | 0.0189 µM and 0.148 µM | 5.67 µM and 17.2 µM | 0.0394 µM and 0.0796 µM | 6.69 µM and 15.2 µM | – | 2.27 µM and 6.27 µM | – | – | –
O=C(c1ccccc1)c1nc2c(Cl)ccc(Cl)c2cc1C(Br)Br | – | 0.983 µM | – | 3.11 µM | – | 1.77 µM | – | 2.89 µM | – | – | – | – | – | 3.11 µM | – | 13.1 µM | – | 2.24 | 6.26
COC(=O)NC1(NC(=O)OC)NC(=O)c2ccccc2N1 | – | > 100 µM | – | > 100 µM | – | > 100 µM | – | > 100 µM | – | > 100 | – | > 100 µM | – | > 100 µM | – | > 100 µM | – | – | –
CN[C@@H](C)C(=O)N[C@H](C(=O)N1CCC[C@H]1c1nc(C(=O)c2ccc(F)cc2)cs1)C1CCCCC1 | 17.1 µM | 34 µM | 20 µM | > 65 µM | 17 | 38.7 µM | 19.4 µM | 38.4 µM | 27.8 | > 72.8 | 39.2 µM | > 100 µM | 53.9 µM | > 100 µM | 11.5 | 38 µM | – | – | –
O=C(CSSCC(=O)c1ccc(Cl)cc1)c1ccc(Cl)cc1 | 4.41 µM | 14.5 µM | 5.03 µM | 21.7 µM | 3.28 | > 100 µM | 5.59 µM | 22.1 µM | 3.35 | 26.9 | 3.7 µM | 36.4 µM | 4.94 µM | 40.3 µM | 2.82 | > 100 µM | – | – | –
CN(C)CCNC(=O)c1ccc2c(c1)oc1cc3ccccc3c(=O)n12 | 18.2 µM | 33.1 µM | 16 µM | 30.8 µM | 35.4 | > 100 µM | 18.6 µM | 32.6 µM | 7.5 | 25.7 | 15.4 µM | 30.6 µM | 25.9 µM | 48.7 µM | 13.4 | > 100 µM | – | – | –
Cc1nc2ccccc2c(=O)n1/N=C(\N=Nc1ccc(Cl)cc1)c1cccc(-c2ccco2)c1 | – | > 100 µM | – | 62.6 µM | – | > 100 µM | – | > 100 µM | – | > 100 | – | > 100 µM | – | – | – | – | – | > 100 | > 100
Cn1c(=O)nc2n(-c3ccc(Br)cc3)c3ccccc3nc-2c1=O | – | 22.3 µM | – | 64.8 µM | – | 24 µM | – | 15.5 µM | – | 11.9 | – | 17.9 µM | – | 9.3 µM | – | – | – | 36.3 | 2.93
CCCCC[C@@H]1CCCC2NC(CCCCCO[Si](c3ccccc3)(c3ccccc3)C(C)(C)C)CCC21 (some centres not stated) | – | 33.2 µM | – | 36.8 µM | – | 20.9 µM | – | 27.3 µM | – | 31.7 | – | 28.4 µM | – | 32.7 µM | – | – | – | 28.1 | 31.8
Nc1c(C(=O)c2cccc(-c3cccnc3)c2)cnn1-c1ccc(F)cc1 | > 25 µM | > 25 µM | > 17.3 µM | > 25 µM | > 25 | > 25 µM | > 25 µM | > 25 µM | > 25 | > 25 | > 25 µM | > 25 µM | > 25 µM | > 25 µM | > 25 | > 25 µM | – | – | –
Cc1c(C)c2cc3c(=O)c(CCl)coc3c(C)c2oc1=O | – | > 100 µM | – | > 100 µM | – | > 100 µM | – | > 100 µM | – | > 100 | – | > 100 µM | – | > 100 µM | – | – | – | – | > 100
COc1ccc([N+](=O)[O-])c2c(NCCCN(C)C)c(C)c(C)nc12 | – | > 100 µM | – | > 100 µM | – | > 100 µM | – | > 100 µM | – | > 100 | – | > 100 µM | – | > 100 µM | – | 56.6 µM | – | – | –
